Test results as given in patent US20090227547A1, “Novel salt form of a Beta2-adrenergic agonist quinolin-2-one derivative” (Glaxo Group Limited, priority 2005, published 2009).

What was measured:
Type in all cases: physicochemical
[1] = physical and chemical stability on storage; conditions: general statement
hygroscopicity = test: hygroscopicity
[2] = solubility in solvents (crystallisation antisolvents); conditions: in a wide range of solvents usable as antisolvents (water, tetrahydrofuran, lower alcohols, acetone)

N-[2-[4-[(3-phenyl-4-methoxyphenyl)amino]phenyl]ethyl]-(R)-2-hydroxy-2-(8-hydroxy-1,2-dihydro-2-oxoquinolin-5-yl)ethylammonium 2,5-dichlorobenzenesulfonate
physical and chemical stability on storage [1]: good physical and chemical stability on storage
hygroscopicity (hygroscopicity): substantially non-hygroscopic
solubility [2]: limited solubility
